According to patent US20120035320A1, “POLYACRIDINE NUCLEIC ACID DELIVERY PEPTIDE COMPLEXES” (University of Iowa Research Foundation, priority 2010, published 2012):
No end group written: not given here. Acr = acridine on the lysine ε-amine; PEG = not defined here

Legend:
[1] = system: plasmid; assay: DNA band shift assay of Man9-(Acr-Lys)6; assay type: binding
Description: (§1) We tested Man9-N-glycan polyacridine peptides as a DNA vaccine adjuvant for use in combination with an intramuscular electroporation apparatus. […] The Man9-(Acr-Lys)6 (SEQ ID NO: 42) that we used for this study has the following structure of In certain embodiments the compound is Formula IVb: […]

[2] = system: Mice; assay: IM-EP of Man9-(Acr-Lys)6 DNA in mice; assay type: in vivo; details: intramuscular electroporation, 1 μg DNA
Method: as §1
The inventors obtained mouse data illustrating the electroporation apparatus expression of Man9-(Acr-Lys)6 (SEQ ID NO: 42) DNA (1 μg) at 0 and 0.012 nmoles of Man9-(Acr-Lys)6 (SEQ ID NO: 42) per μg of DNA (FIG. 32). The luciferase gene expression was equivalent at 0, 0.003 and 0.006 nmols of Man9 per μg of DNA, and then decreased at 0.0125 nmols of Man9 and higher. 0.0125 nmols of Man9-(Acr-Lys)6 (SEQ ID NO: 42) per μg of DNA corresponds 40 copies of Man9 per plasmid.

[3] = system: DC-SIGN (+) and (−) CHO cells; assay: in vitro transfection with glycopeptide DNA polyplexes; assay type: cell-based, human; details: luciferase, 24 hrs
Method: DC-SIGN (+) CHO cells (1×10^5) were plated in 6-well plates in triplicate in 1 ml DMEM high glucose supplemented with 7% FBS and 1% MEM non-essential amino acids. After incubation for 24 hrs at 37° C. in 5% CO2, the media was removed, the cells were washed with 1 ml DPBS, replaced with 1 ml DMEM high glucose media supplemented with 2% FBS and 0.3% MEM non-essential amino acids.
Cells were transfected in triplicate for 24 hrs with pGL3 polyplexes (1 μg DNA and 0.6 nmol of glycopeptide in a total volume of 30 μl). The efficiency of glycopeptide DNA polyplex transfection was compared with PEI-DNA transfection performed by combining 1 μg DNA with 1.2 μg of PEI (N:P of 9) in 100 μl of 5 mM Hepes, 270 mM mannitol, pH 7.4. After 24 hrs, cells were washed with 2 ml of DPBS and lysed with 0.5 ml of lysis buffer (25 mM tris chloride, 1 mM EDTA, 8 mM magnesium chloride, 1% Triton X-100, pH 7.8) for 10 min at 4° C. […] The relative light units were determined with 10 sec integration after automatic injection of 100 μl of 0.43 mM D-luciferin. Protein concentrations were measured by a BCA assay with bovine serum albumin as a standard (Smith, P. K., Krohn, R. I., Hermanson, G. T., Mallia, A. K., Gartner, F. H., Provenzano, M. D., Fujimoto, E. K., Goeke, N. M., Olson, B. J., and Klenk, D. C. (1985) Measurement of protein using bicinchoninic acid. Anal Biochem 150, 76-85). […]

[4] = system: liver; assay: hydrodynamic stimulation and bioluminescence imaging of luciferase expression; assay type: in vivo, mice; details: 1 μg pGL3 dose, HD stimulation after 30 min, 24 hrs
Method: pGL3 (1 μg) was prepared in a volume of normal saline corresponding to 9 wt/vol % of the mouse's body weight (1.8-2.25 ml based on 20-25 g mice). The DNA dose was administered by tail vein to 4-5 mice in 5 sec according to a published procedure (Liu F, Song Y, Liu D. Hydrodynamics-based transfection in animals by systemic administration of plasmid DNA. Gene Ther 1999; 6: 1258-1266; Zhang G, Budker V, Wolff J A. High levels of foreign gene expression in hepatocytes after tail vein injections of naked plasmid DNA. Human Gene Therapy 1999; 10: 1735-1737). Mice (4-5) were also dosed tail vein with 1 μg of PEGylated polyacridine polyplex in 50 μl of HBM (5 mM Hepes, 0.27 M mannitol, pH 7.4). At times ranging from 5-120 min, a stimulatory hydrodynamic dose of normal saline (9 wt/vol % of the body weight) was administered over 5 sec. At 24 hrs post-DNA dose, mice were anesthetized by 3% isofluorane, then administered an i.p. dose of 80 μl (2.4 mg) of D-luciferin (30 μg/μl in phosphate-buffered saline). At 5 min following the D-luciferin dose, mice were imaged for bioluminescence (BLI) on an IVIS Imaging 200 Series (Xenogen). BLI was performed in a light-tight chamber on a temperature-controlled, adjustable stage while isofluorane was administered by a gas manifold at a flow rate of 3%. Images were acquired at a ‘medium’ binning level and a 20 cm field of view. Acquisition times were varied (1 sec^−1 min) depending on the intensity of the luminescence. The Xenogen system reported bioluminescence as photons/sec/cm^2/seradian in a 2.86 cm diameter region of interest covering the liver. The integration area was transformed to pmols of luciferase in the liver using a previously reported standard curve (Rettig G et al. Quantitative Bioluminscence Imaging of Transgene Expression In Vivo. Analytical Biochemistry 2006; 335: 90-94). The results were determined to be statistically significant (p≦0.05) based on a two-tailed unpaired t-test.

[5] = following i.v. dosing; Collard et al. 2000; cited from earlier work

## Man9-(Acr-Lys)6: Iodoacetamide Man9 N-glycan reacted with Cys(Acr-Lys)6; Formula IVb (K(Acr)KK(Acr)KK(Acr)KK(Acr)KK(Acr)KK(Acr)K; not fully specified (N-terminus); also: Man9 N-glycan attached via iodoacetamide to a Cys not shown in chain)
[1]
  copies bound to plasmid: up to 40 copies
[2]
  luciferase gene expression at 0, 0.003 and 0.006 nmols of Man9 per μg of DNA: equivalent
  luciferase gene expression at 0.0125 nmols of Man9 and higher: decreased

## Cys-(Acr-Lys)4: DNA binding polyacridine peptide with N-terminal Cys, prepared with Fmoc-Lys(Acr); SEQ ID NO: 23
[3]
  selectivity of gene transfer for CHO (+) or (−) cells: did not demonstrate selectivity

## PEG-Cys-Trp-Lys18: PEGylated polylysine peptide control, SEQ ID NO: 34 (C(PEG)WKKKKKKKKKKKKKKKKKK; reading uncertain)
[4]
  stimulated luciferase expression of controls: failed to produce measurable expression
[4]; listed as PEGylated-Cys-Trp-Lys18
  stimulated luciferase expression of controls: no detectable luciferase expression
[5]
  complete metabolism of plasmid DNA in the circulation: ≤ 3 min
